Results taken from US5710154A, “Tetrahydrofuran antifungals” (Schering Corporation, priority 1995, dated 1998).

What was measured:
[1] = Serum levels following oral dosing, monkeys; assay type: in vivo; settings: methyl cellulose formulation, compared to azoles of similar structure
[2] = Serum levels following oral dosing, rats; assay type: in vivo; settings: methyl cellulose formulation, compared to azoles of similar structure
[3] = Serum levels following oral dosing, dogs; assay type: in vivo; settings: methyl cellulose formulation, compared to azoles of similar structure
[4] = Serum levels following oral dosing, mice; assay type: in vivo; settings: methyl cellulose formulation, compared to azoles of similar structure
[5] = Serum half life and tissue distribution following O.D. dosing; assay type: in vivo, mice, rats, dogs and monkeys
Candida krusei = experiment: In vitro antifungal activity, broth dilution (MIC/MFC), Candida krusei; assay type: cell-based; settings: 16 strains
Experimental: (§1) The in vitro antifungal activity tests were performed via conventional broth dilution methods in Sabouraud dextrose broth ("SDB") medium and Eagles Minimum Essential Medium ("EMEM") against a large number of fungi. Minimum Inhibitory Concentrations ("MICs") were measured after 24, 48 and 72 hour tests. In many cases, Minimum Fungicidial Concentrations ("MFCS") were measured after 48 and 72 hours.

Candida albicans = experiment: In vitro antifungal activity, broth dilution (MIC/MFC), Candida albicans; assay type: cell-based; settings: 26 strains
Experimental: as §1

Aspergillus = experiment: In vitro antifungal activity, broth dilution (MIC/MFC), Aspergillus; assay type: cell-based, Aspergillus (flavus, fumigatus and other species); settings: 37 strains
Experimental: as §1

[6] = tested on: Candida tropicalis & stellatoidea; experiment: In vitro antifungal activity, broth dilution (MIC/MFC), Candida tropicalis & stellatoidea; assay type: cell-based; settings: 5 strains
Experimental: as §1

Candida glabrata = experiment: In vitro antifungal activity, broth dilution (MIC/MFC), Candida glabrata; assay type: cell-based; settings: 9 strains
Experimental: as §1

Cryptococcus neoformans = experiment: In vitro antifungal activity, broth dilution (MIC/MFC), Cryptococcus neoformans; assay type: cell-based; settings: 3 strains
Experimental: as §1

Dermatophytes = experiment: In vitro antifungal activity, broth dilution (MIC/MFC), dermatophytes; assay type: cell-based, T. rubrum, T. mentagrophytes, and T. tonsurans; settings: 6 strains

Compound | MIC 90 (Minimum Inhibitory Concentrations for 90% of the strains) (Candida krusei) | MIC 90 (Minimum Inhibitory Concentrations for 90% of the strains) [6] | MIC 90 (Minimum Inhibitory Concentrations for 90% of the strains) (Dermatophytes) | Percentage of strains with MFCs ≤1 mcg/ml (Candida krusei) [%] | Percentage of strains with MFCs ≤1 mcg/ml (Candida albicans) [%] | Percentage of strains with MFCs ≤1 mcg/ml (Aspergillus) [%] | Percentage of strains with MFCs ≤1 mcg/ml [6] [%] | Percentage of strains with MFCs ≤1 mcg/ml (Candida glabrata) [%] | Percentage of strains with MFCs ≤1 mcg/ml (Cryptococcus neoformans) [%] | Percentage of strains with MFCs ≤1 mcg/ml (Dermatophytes) [%] | other results
CCC(C(C)O)n1ncn(-c2ccc(N3CCN(c4ccc(OCC5COC(Cn6cncn6)(c6ccc(F)cc6F)C5)cc4)CC3)cc2)c1=O (stereo not drawn) [drawing 21] |  |  |  |  |  |  |  |  |  |  | serum levels [1]: consistently higher serum levels; serum levels [2]: consistently higher serum levels; serum levels [3]: consistently higher serum levels; serum levels [4]: consistently higher serum levels; tissue distribution [5]: good tissue distribution
CCC(C(C)O)n1ncn(-c2ccc(N3CCN(c4ccc(OCC5COC(Cn6cncn6)(c6ccc(F)cc6F)C5)cc4)CC3)cc2)c1=O (stereo not drawn) [drawing 31] | .014 MCG/ML | .117 MCG/ML | .101 MCG/ML |  |  |  |  |  |  |  | MIC 90 (Minimum Inhibitory Concentrations for 90% of the strains) (Candida albicans): .174 MCG/ML; MIC 90 (Minimum Inhibitory Concentrations for 90% of the strains) (Aspergillus): .096 MCG/ML; MIC 90 (Minimum Inhibitory Concentrations for 90% of the strains) (Candida glabrata): 17.1 MCG/ML; MIC 90 (Minimum Inhibitory Concentrations for 90% of the strains) (Cryptococcus neoformans): .007 MCG/ML
CCC(C(C)O)n1ncn(-c2ccc(N3CCN(c4ccc(OCC5COC(Cn6cncn6)(c6ccc(F)cc6F)C5)cc4)CC3)cc2)c1=O (stereo not drawn) [drawing 26] |  |  |  | 88 | 100 | 50 | 100 | 22 | 100 | 67 | 
CCC(C(C)O)n1ncn(-c2ccc(N3CCN(c4ccc(OCC5COC(Cn6cncn6)(c6ccc(F)cc6F)C5)cc4)CC3)cc2)c1=O (stereo not drawn) [drawing 28] |  |  |  | 100 | 100 | 89 | 100 | 22 | 100 | 100 | 
CCC(C(C)O)n1ncn(-c2ccc(N3CCN(c4ccc(OCC5COC(Cn6cncn6)(c6ccc(F)cc6F)C5)cc4)CC3)cc2)c1=O (stereo not drawn) [drawing 32] | .12 MCG/ML | .354 MCG/ML | .707 MCG/ML |  |  |  |  |  |  |  | MIC 90 (Minimum Inhibitory Concentrations for 90% of the strains) (Candida albicans): .139 MCG/ML; MIC 90 (Minimum Inhibitory Concentrations for 90% of the strains) (Aspergillus): .112 MCG/ML; MIC 90 (Minimum Inhibitory Concentrations for 90% of the strains) (Candida glabrata): 28.8 MCG/ML
CCC(C(C)O)n1ncn(-c2ccc(N3CCN(c4ccc(OCC5COC(Cn6cncn6)(c6ccc(F)cc6F)C5)cc4)CC3)cc2)c1=O (stereo not drawn) [drawing 30] | .058 MCG/ML | .117 MCG/ML | .165 MCG/ML |  |  |  |  |  |  |  | MIC 90 (Minimum Inhibitory Concentrations for 90% of the strains) (Cryptococcus neoformans): .05 MCG/ML
CCC(C(C)O)n1ncn(-c2ccc(N3CCN(c4ccc(OCC5COC(Cn6cncn6)(c6ccc(F)cc6F)C5)cc4)CC3)cc2)c1=O (stereo not drawn) [drawing 27] |  |  |  | 94 | 100 | 62 | 100 | 22 | 100 | 83 | 
OC(Cn1cncn1)(Cn1cncn1)c1ccc(F)cc1F [fluconazole, reference compound] |  |  |  | 0 | 100 | 0 | 100 | 0 | 0 | 0 | Percentage of strains with MICs ≤1 mcg/ml (Candida krusei): 0%; Percentage of strains with MICs ≤1 mcg/ml (Candida albicans): 100%; Percentage of strains with MICs ≤1 mcg/ml (Aspergillus): 0%; Percentage of strains with MICs ≤1 mcg/ml [6]: 100%; Percentage of strains with MICs ≤1 mcg/ml (Candida glabrata): 0%; Percentage of strains with MICs ≤1 mcg/ml (Cryptococcus neoformans): 0%; Percentage of strains with MICs ≤1 mcg/ml (Dermatophytes): 100%
